Eight compounds from ChEMBL document CHEMBL1201862, “PubChem BioAssay data set” (2004) can be followed below.

Active and inactive are the calls of the source. Bounds are passed on as bounds.

Assay [1] concerns the target T1, Alkaline phosphatase, tissue-nonspecific isozyme (Homo sapiens, UniProt P05186).
T1 sequence (P05186 whole entry): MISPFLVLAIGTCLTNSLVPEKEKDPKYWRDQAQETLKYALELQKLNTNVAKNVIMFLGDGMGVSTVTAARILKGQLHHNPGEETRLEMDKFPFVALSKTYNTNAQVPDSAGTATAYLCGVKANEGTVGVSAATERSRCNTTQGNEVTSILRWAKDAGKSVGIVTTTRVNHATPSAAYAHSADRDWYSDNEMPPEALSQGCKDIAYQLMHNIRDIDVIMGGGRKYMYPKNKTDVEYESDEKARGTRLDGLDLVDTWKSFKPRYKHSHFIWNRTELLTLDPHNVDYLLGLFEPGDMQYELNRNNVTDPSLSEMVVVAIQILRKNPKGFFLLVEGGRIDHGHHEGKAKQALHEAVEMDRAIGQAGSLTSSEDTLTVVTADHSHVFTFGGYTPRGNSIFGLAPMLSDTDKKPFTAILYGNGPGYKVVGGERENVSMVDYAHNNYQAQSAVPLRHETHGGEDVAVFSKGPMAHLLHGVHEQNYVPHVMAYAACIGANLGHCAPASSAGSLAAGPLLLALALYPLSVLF
The experiment in a line: human TNAP enzyme inhibitors, SAR follow-up, biochemical, luminescent, dose response (AID 1056).

Assay [2] addresses T2, Estrogen receptor (Homo sapiens, UniProt P03372).
T2 sequence (P03372 whole entry): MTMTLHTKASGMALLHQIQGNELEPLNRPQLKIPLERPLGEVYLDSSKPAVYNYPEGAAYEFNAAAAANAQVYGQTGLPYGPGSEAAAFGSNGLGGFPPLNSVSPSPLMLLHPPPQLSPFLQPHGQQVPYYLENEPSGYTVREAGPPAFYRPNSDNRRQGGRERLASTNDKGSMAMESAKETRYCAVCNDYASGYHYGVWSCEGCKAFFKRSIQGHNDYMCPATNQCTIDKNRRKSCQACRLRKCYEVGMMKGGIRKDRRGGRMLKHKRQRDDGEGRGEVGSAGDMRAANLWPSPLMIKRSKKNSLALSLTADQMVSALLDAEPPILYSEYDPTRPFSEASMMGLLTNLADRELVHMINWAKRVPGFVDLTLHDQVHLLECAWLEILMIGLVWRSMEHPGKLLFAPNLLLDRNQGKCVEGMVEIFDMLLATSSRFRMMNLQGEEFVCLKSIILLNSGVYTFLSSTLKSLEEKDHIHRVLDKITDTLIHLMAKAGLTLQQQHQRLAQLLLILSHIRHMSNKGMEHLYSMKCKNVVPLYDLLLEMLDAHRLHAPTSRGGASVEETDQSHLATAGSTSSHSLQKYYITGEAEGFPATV

Assay [3] addresses Alkaline phosphatase, placental type (Homo sapiens, UniProt P05187). Put plainly: PLAP enzyme inhibitors, confirmation, biochemical, luminescence (AID 1512). The class given is functional.
Assay [4] addresses T3, Mucolipin-3 (Homo sapiens, UniProt Q8TDD5).
T3 sequence (Q8TDD5 whole entry): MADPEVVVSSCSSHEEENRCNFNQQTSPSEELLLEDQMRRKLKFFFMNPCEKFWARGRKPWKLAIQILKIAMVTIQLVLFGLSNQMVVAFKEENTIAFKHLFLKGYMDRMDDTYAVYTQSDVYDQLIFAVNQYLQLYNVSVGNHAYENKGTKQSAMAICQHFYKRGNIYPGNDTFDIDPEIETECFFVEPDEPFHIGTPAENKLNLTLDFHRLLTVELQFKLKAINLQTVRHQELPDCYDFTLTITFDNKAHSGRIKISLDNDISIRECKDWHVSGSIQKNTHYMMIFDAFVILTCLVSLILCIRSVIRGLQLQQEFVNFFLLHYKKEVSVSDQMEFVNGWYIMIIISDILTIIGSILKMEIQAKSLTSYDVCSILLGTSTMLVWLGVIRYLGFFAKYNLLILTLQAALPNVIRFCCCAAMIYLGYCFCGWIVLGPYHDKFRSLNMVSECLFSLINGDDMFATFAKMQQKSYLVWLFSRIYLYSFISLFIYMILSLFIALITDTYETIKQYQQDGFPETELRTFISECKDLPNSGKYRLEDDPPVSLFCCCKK
Put plainly: Fluorescence counterscreen assay for […] agonists: dose response cell-based high-throughput screening assay to identify agonists of the transient receptor potential channel ML3 (TRPML3). [Related pubchem assays: 1424, 1448 ]. The format is functional. (Counterscreens check selectivity or assay interference.)

The target in assay [5] is Ion channel NompC (Danio rerio, UniProt Q7T1G6). The experiment in a line: Dose response cell-based high-throughput screening assay for agonists of the transient receptor potential channel N1 (TRPN1). [Related pubchem assays (depositor defined):AID1424, AID1448]. The format is functional.
Assay [6] concerns the target Protein phosphatase methylesterase 1 (Homo sapiens, UniProt Q9Y570). Put plainly: PME-1 inhibitors by competitive ABPP, late-stage follow-up, gel-based ABPP, IC50, set 1 (AID 463130). The class given is functional.
Assay [7] has as its target T4, Fatty acid synthase (Homo sapiens, UniProt P49327). Put plainly: FAS thioesterase domain inhibitors, dose response, biochemical, endpoint fluorescence intensity, uHTS hits (AID 624327).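 Note: fluorescence from hydrolysis of an O-methyl fluorescein acyl ester substrate by the enzyme.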 The format is functional.
In assay [8] the target is T4, Fatty acid synthase. Put plainly: FAS thioesterase domain inhibitors, dose response, biochemical, kinetic fluorescence intensity (AID 624326).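 Note: rate of fluorescence rise from hydrolysis of a fluorogenic O-methyl fluorescein ester substrate.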 The format is functional.
Assay [9] concerns the target Polyadenylate-binding protein 1 (Homo sapiens, UniProt P11940). The experiment in a line: PABP poly(A) RNA binding inhibitors, primary screen, biochemical, fluorescence polarization, uHTS (AID 2014). Background: In fluorescence polarisation assays a small probe gives low polarisation when free and higher when bound to something large.
Assay [10] has as its target Eukaryotic translation initiation factor 4H (Homo sapiens, UniProt Q15056). The experiment in a line: human eIF4H binding inhibitors, primary screen, translation initiation inhibitor project, biochemical, uHTS, fluorescence polarization (AID 2012).
Assay [11] has as its target DNA dC->dU-editing enzyme APOBEC-3G (Homo sapiens, UniProt Q9HC16). The class given is functional.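 Note: Dose-response counterscreen measuring inhibition of APOBEC3G DNA deaminase activity, run while confirming APOBEC3A inhibitors.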
Assay [12] has as its target DNA dC->dU-editing enzyme APOBEC-3A (Homo sapiens, UniProt P31941). The experiment in a line: Dose Response confirmation of small molecule APOBEC3A DNA Deaminase Inhibitors via a fluorescence-based single-stranded DNA deaminase assay. [Related pubchem assays (depositor defined):AID493011, AID493024]. The format is functional.
Assay [13] concerns the target Coagulation factor XII (Homo sapiens, UniProt P00748). The format is functional.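 Note: activated factor XIIa alpha cleaving a fluorogenic AMC peptide substrate; inhibitor potency from loss of enzyme activity.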
Assay [14] concerns Vero. The experiment in a line: cells. The format is functional. The following applies: Chlorocebus sabaeus.
For assay [15], the target named is T5, Type-1 angiotensin II receptor (Homo sapiens, UniProt P30556).
T5 sequence (P30556 whole entry): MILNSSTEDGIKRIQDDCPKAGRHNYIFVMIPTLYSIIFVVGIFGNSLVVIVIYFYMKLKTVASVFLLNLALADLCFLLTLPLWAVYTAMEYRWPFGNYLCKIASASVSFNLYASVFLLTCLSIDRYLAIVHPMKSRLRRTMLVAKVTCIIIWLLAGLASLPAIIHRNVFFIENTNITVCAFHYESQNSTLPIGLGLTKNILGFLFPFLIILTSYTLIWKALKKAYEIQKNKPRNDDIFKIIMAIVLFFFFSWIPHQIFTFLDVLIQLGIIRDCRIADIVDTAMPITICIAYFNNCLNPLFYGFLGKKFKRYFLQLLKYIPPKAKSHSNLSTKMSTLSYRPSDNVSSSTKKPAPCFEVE
Put plainly: AT1 receptor agonists, dose response, selectivity assay for APJ receptor agonist project, cell-based, uHTS hits (AID 488865).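 Note: beta-arrestin recruitment to AT1 measured by enzyme fragment complementation luminescence.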 The class given is functional.

For assay [16], the target named is T6, Cannabinoid receptor 1 (Homo sapiens, UniProt P21554). Put plainly: SAR analysis of antagonists of the Cannabinoid Receptor 1 using an Image-Based Assay - Set 3. [Related pubchem assays (depositor defined):AID1961, AID1965]. The format is functional.
T6 sequence (P21554 whole entry): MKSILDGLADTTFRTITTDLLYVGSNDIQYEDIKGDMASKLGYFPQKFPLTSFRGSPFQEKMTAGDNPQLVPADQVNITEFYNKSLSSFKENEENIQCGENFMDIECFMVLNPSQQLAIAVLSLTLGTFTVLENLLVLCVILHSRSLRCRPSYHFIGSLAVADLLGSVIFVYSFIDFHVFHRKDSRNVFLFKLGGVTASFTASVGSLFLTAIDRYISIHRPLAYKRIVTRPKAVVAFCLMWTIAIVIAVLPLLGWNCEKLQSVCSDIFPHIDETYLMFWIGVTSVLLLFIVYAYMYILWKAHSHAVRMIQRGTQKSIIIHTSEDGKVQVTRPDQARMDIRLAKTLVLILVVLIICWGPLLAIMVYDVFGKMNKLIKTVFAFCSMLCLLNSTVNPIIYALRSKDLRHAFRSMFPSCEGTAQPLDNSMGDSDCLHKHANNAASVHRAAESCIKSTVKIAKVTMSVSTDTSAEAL
In assay [17] the target is T7, G-protein coupled receptor 35 (Homo sapiens, UniProt Q9HC97). The experiment in a line: SAR analysis of Antagonists of the GPR35 Receptor using an Image-Based Assay - Set 4. [Related pubchem assays (depositor defined):[…]]. The format is functional.
T7 sequence (Q9HC97 whole entry): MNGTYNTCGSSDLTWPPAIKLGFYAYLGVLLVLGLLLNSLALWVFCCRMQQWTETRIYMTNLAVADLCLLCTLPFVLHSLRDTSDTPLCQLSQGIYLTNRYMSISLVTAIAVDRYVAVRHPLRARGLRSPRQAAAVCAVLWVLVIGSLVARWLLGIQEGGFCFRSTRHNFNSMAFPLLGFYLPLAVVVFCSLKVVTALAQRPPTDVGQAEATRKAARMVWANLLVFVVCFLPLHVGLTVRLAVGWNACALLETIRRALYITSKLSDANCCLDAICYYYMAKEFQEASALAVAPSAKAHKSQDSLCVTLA
The target of assay [18] is T8, Cannabinoid receptor 2 (Homo sapiens, UniProt P34972). Put plainly: SAR analysis of agonists of the Cannabinoid Receptor 2 using an Image-Based Assay - Set 2. [Related pubchem assays (depositor defined):AID1961, AID1965]. The class given is functional.
T8 sequence (P34972 whole entry): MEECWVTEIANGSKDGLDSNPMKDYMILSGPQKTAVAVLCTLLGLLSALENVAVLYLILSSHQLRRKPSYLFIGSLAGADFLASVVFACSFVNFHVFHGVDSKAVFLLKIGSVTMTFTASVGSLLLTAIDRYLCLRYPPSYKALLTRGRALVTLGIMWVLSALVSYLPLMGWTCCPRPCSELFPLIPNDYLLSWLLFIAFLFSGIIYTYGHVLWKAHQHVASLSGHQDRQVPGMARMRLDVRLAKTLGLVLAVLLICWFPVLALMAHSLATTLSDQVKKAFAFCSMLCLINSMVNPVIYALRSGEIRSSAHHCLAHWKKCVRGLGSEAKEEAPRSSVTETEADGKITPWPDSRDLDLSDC
In assay [19] the target is T6, Cannabinoid receptor 1. The experiment in a line: SAR analysis of agonists of the Cannabinoid Receptor 1 using an Image-Based Assay - Set 3. [Related pubchem assays (depositor defined):AID1961, AID1965]. The format is functional.
In assay [20] the target is T7, G-protein coupled receptor 35. Put plainly: SAR analysis of Agonists of the GPR35 Receptor using an Image-Based Assay - Set 3. [Related pubchem assays (depositor defined):AID1961, AID1965]. The format is functional.
The target in assay [21] is G-protein coupled receptor 55 (Homo sapiens, UniProt Q9Y2T6). The experiment in a line: SAR analysis of selective Agonists of GPR55 using an Image-Based Assay - Set 2. [Related pubchem assays (depositor defined):AID1961, AID1965]. The format is functional.
Chain of G-protein coupled receptor 55 (Q9Y2T6 whole entry): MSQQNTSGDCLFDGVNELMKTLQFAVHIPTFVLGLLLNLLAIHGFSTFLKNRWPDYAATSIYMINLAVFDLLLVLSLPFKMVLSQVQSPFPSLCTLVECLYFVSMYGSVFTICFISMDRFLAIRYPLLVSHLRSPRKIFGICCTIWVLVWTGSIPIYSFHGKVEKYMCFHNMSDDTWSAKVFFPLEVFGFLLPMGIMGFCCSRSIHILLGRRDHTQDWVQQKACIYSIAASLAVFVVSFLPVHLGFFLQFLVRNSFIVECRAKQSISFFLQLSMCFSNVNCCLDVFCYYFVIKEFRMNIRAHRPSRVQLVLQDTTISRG
For assay [22], the target named is T8, Cannabinoid receptor 2. Put plainly: SAR analysis of antagonists of the Cannabinoid Receptor 2 using an Image-Based Assay - Set 2. [Related pubchem assays (depositor defined):AID1961, AID1965]. The class given is functional.
In assay [23] the target is DNA damage-inducible transcript 3 protein (Mus musculus, UniProt P35639). The class given is functional, Cricetulus griseus.
Assay [24] has as its system Streptococcus sp. 'group A'. The experiment in a line: growth inhibition of control SK(-) GAS strain, dose response, counter-screen for streptokinase expression inhibitor project, luminescence, kanamycin, BacTiterGlo, confirmation (AID 1900). The class given is functional, organism-based.
Assay [25] addresses T9, Streptokinase A (Streptococcus pyogenes serotype M1, UniProt P10520).
T9 sequence (P10520 whole entry): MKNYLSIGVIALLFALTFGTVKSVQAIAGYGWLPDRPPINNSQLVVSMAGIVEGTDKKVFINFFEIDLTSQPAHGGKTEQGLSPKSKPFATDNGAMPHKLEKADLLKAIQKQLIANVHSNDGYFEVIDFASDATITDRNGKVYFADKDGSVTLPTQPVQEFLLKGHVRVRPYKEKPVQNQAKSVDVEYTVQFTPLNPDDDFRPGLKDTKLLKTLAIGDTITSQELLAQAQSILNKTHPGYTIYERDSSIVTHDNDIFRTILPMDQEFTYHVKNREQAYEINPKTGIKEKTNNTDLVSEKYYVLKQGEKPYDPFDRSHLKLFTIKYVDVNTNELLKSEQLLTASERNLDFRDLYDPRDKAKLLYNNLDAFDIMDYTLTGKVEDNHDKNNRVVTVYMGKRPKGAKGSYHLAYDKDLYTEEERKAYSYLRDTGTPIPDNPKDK
The experiment in a line: S. pyogenes streptokinase expression inhibitors, potency, dose response, plasminogen activation absorbance, OD405 (AID 1914).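 Note: secreted streptokinase activity via plasminogen activation per viability signal from cell pellet.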 The format is functional, Streptococcus pyogenes M1 GAS.

For assay [26], the system named is Streptococcus. The experiment in a line: Group A Streptococcus viability loss, dose response, counter-screen for streptokinase expression inhibitor project, luminescence, BacTiterGlo (AID 1915).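 Note: potency for reduction of bacterial viability or growth.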 The class given is functional, organism-based.
Assay [27] deals with Beta-galactosidase (Escherichia coli, UniProt Q8VNN2). The experiment in a line: Dose response counterscreen for EBI2 assay utilizing the enzyme, b-galactosidase. The format is functional.
Assay [28] in a line: cytotoxicity in HPDE-C7 cells, cell-based, fluorescence, HTS (AID 430). The note with it: Homo sapiens. The format is functional.
Assay [29] in a line: cytotoxicity in KRAS-transformed pancreatic duct cells, primary screen, cell-based, fluorescence, HTS (AID 431). The class given is functional. The note with it: Homo sapiens.

T4 sequence (P49327 whole entry, the tested form may be a part): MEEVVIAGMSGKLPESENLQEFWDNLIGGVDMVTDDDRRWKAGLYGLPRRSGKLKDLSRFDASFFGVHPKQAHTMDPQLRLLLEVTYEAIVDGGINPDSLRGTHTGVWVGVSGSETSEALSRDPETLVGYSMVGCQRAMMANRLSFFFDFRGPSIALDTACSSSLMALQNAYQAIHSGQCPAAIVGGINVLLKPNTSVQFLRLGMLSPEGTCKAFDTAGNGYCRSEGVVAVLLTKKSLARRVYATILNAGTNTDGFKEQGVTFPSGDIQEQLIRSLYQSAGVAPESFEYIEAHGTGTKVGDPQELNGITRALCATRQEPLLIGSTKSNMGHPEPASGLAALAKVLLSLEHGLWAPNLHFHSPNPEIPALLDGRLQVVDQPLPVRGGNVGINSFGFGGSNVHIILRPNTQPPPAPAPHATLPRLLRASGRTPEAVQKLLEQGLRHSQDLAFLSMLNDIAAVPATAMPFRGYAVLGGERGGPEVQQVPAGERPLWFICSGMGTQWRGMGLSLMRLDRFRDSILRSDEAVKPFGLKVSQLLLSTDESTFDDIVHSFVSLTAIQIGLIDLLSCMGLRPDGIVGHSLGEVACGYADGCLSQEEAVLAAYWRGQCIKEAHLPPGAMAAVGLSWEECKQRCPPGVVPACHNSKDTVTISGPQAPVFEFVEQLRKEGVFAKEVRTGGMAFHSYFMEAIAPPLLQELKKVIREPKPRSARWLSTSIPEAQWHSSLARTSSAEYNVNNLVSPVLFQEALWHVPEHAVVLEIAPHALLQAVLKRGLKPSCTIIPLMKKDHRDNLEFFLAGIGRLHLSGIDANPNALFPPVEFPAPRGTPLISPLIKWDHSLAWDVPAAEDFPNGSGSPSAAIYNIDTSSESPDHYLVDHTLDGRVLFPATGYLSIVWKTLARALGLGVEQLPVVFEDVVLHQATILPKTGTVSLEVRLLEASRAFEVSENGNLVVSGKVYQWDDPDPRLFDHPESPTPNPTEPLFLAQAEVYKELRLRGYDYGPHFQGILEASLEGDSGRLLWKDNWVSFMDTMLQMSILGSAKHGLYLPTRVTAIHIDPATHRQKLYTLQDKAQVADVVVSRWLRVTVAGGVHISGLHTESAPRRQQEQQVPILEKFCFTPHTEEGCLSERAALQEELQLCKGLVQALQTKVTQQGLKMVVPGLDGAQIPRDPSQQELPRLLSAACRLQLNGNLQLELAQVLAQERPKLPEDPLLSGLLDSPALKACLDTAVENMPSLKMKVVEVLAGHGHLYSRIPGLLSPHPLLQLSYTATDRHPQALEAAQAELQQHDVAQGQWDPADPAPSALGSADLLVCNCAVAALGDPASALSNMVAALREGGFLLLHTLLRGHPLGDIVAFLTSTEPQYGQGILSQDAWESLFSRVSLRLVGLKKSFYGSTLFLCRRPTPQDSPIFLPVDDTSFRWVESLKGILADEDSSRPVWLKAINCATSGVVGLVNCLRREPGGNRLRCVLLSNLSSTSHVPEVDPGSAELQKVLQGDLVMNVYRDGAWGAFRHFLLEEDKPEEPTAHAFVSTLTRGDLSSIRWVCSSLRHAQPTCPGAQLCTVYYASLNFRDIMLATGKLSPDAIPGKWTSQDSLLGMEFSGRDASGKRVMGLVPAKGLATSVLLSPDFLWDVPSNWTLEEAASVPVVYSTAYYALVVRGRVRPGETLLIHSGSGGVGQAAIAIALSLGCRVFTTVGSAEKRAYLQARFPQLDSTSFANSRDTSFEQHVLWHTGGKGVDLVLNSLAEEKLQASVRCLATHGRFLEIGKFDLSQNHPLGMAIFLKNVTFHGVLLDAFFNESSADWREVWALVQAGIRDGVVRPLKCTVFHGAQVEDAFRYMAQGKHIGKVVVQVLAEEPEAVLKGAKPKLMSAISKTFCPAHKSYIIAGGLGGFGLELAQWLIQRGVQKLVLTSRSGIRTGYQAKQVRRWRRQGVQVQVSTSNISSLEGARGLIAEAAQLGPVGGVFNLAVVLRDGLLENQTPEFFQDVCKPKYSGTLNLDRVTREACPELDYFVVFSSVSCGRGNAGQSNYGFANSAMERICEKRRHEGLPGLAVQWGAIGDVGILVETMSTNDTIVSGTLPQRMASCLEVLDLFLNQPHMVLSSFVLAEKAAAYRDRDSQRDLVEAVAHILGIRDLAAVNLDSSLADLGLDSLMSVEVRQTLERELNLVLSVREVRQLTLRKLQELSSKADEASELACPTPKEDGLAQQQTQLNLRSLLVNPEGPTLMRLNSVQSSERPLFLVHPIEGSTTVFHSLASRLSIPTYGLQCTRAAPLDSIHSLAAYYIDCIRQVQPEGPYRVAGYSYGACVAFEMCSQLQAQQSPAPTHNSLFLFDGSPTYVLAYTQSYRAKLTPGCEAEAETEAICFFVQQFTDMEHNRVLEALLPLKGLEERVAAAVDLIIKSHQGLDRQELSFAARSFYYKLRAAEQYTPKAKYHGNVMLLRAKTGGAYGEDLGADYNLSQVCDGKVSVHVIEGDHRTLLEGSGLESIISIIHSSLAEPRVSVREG
Chain of DNA dC->dU-editing enzyme APOBEC-3A (P31941 whole entry): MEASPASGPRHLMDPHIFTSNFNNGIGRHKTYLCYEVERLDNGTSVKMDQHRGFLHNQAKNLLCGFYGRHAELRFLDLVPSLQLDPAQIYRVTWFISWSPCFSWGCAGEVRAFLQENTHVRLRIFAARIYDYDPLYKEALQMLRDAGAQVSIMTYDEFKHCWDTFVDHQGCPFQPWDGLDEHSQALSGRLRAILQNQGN
Chain of Alkaline phosphatase, placental type (P05187 whole entry): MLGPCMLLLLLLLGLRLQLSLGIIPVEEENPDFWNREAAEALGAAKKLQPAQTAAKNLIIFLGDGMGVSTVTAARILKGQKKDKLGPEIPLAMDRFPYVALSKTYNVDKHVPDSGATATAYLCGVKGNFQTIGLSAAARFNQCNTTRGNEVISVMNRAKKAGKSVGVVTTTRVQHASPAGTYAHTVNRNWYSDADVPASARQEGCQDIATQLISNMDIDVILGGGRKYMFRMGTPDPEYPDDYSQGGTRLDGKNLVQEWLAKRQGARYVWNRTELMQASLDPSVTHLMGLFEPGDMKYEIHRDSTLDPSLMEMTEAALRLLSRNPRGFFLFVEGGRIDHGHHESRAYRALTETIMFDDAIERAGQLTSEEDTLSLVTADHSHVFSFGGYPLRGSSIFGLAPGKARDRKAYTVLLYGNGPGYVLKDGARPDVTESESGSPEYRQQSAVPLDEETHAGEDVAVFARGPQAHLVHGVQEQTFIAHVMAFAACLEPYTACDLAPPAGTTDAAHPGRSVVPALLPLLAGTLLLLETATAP

As usually defined, the IC50 is the concentration that inhibits the measured activity by half. Regarding `CNc1nnc(-c2cc3cc(Cl)ccc3oc2=O)s1`, the IC50 is > 100 µM (inactive) in [1], 11.1 µM (active) in [2] and > 100 µM (inactive) in [3].

One may read the EC50 as the concentration needed to bring the measured effect to its halfway point. With `CCN1C(=O)/C(=C/c2ccc(N3CCCC3)cc2)NC1=S`, the EC50 is 2.43 µM (active) in assay [4] and 1.28 µM (active) in [5].

`COC(=O)N1C(=O)[C@](c2ccc(OC)cc2)(C(C)C)N1C(=O)OC`: the IC50 in assay [6] was 0.069 µM (active); in assay [7], 3.86 µM (active); in assay [8], 2.06 µM (active).

Turning to `Oc1ccccc1C=N[n+]1ccccc1`, the IC50 is 5.32 µM (active) in assay [9], > 100 µM (inactive) in [10], 5.33 µM (active) in assay [11] and 2.88 µM (active) in assay [12].

Take `COC(=O)c1ccc(C(C(=O)NC2CCCCC2)N(CCN2CCOCC2)C(=O)Cc2cccs2)cc1` (centres undefined): the IC50 in [13] was > 50 µM (inactive).

One may read the CC50 as the concentration at which the toxic effect on the cells reaches its halfway point. On to `CCN(CC)CCNC(=O)c1cc(-c2cccnc2)nc2ccc(S(=O)(=O)N3CCC(C)CC3)cc12`, for which the CC50 in [14] was 9.06 µM (active). Moreover, the EC50 in assay [15] is > 100 µM (inactive).

As to `Cc1cc2cc3c(cc2n2c(SCC(=O)Nc4nc(-c5ccccc5)cs4)nnc12)OCCO3`, the IC50 in [16] was 12.7 µM (inactive); in assay [17], > 32 µM (inactive); in assay [22], > 32 µM (inactive). For the same compound, the EC50 in assay [18] was > 32 µM (inactive); in [19], > 32 µM (inactive); in assay [20], > 32 µM (inactive); in [21] it was 4.42 µM (active).

With `Nc1c(S(=O)(=O)c2ccccc2)c2nc3ccccc3nc2n1/N=C/c1cccc(O)c1`, the “Absolute IC50 (CHOP)” value in assay [23] was determined as 10 µM. For the same compound, the EC50 in assay [24] was 7.72 µM (active); in assay [25], 23.6 µM (active); in assay [26] it was 75.4 µM (active); in assay [28] it was 2.92 µM (active); in assay [29], 2.83 µM (active). Besides, the IC50 in assay [27] was > 80 µM (inactive).
